Measurements from PubChem BioAssay (NCI).
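Exposure lasted 48 hours, with cells grown in 96-well plates and compounds tested at five concentrations. The concentration for full growth arrest is given as TGI.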

Each molecule was assayed on HOP-92 NSCLC (assay: growth of human tumour cells (NCI), 48 h).

Structure (SMILES) | TGI
NNC(=O)CSc1nc2ccccc2c(=O)n1N | 57.7 µM
Cc1cc(S(=O)(=O)Nc2nc3cc(-c4ccc(Cl)cc4)sc3c(=O)n2N)c(S)cc1Cl | > 100 µM
CCC(=O)ONC(=O)Cn1ccc([N+](=O)[O-])n1 | > 100 µM
CN1COCc2c1ccc1cc3ccc4c(c3nc21)COCN4S(C)(=O)=O | > 100 µM
CN(C)c1ccc(C2SCC(=O)N2c2ccc(Oc3ccc(Cl)cc3)c(Cl)c2)cc1 (stereo not given) | 45.8 µM
CC(C)NC(=O)OCCN=c1c2ccccc2ccc2ccccc12 | 88 µM
O=c1oc2ccc([N+](=O)[O-])cc2c(Nc2ccc3c(c2)Oc2ccccc2O3)c1[N+](=O)[O-] | 54.1 µM
Cn1c2ccccc2c(=NNc2cccc(C(=O)O)c2)c2ccccc21 | 51.2 µM

Each molecule was assayed on K-562 leukemia (assay: growth of human tumour cells (NCI), 48 h).

Structure (SMILES) | TGI
COc1ccc(N2C(=O)CSC2c2c[nH]c3ccccc23)cc1 (stereo not given) | > 100 µM
CC(C)(C)C(=O)CC1=Nc2ccccc2SC1(O)CC(=O)C(C)(C)C (stereo not given) | 97.1 µM
N#CC1=C(N)N(c2ccccc2)C(c2ccccc2)C1(C#N)C#N (stereo not given) | 26.5 µM
CCCCN=C(c1ccccc1)N1CCOCC1 | > 100 µM
CCOC(=O)c1ccc(C)c(N=NN(C)C)c1 | > 100 µM
CC(C)CC(O)P(=O)(O)O (stereo not given) | > 100 µM
CCC1(C)C=Cc2c(cc(O)c3c(=O)c4ccccc4n(C)c23)O1 (stereo not given) | > 10 µM
Cc1ccc(S(=O)(=O)NC(=O)N[C@@H](Cc2cnc[nH]2)C(=O)O)cc1 | > 100 µM
O=NN(CCCl)C(=O)NC1CCC(O)CC1 (stereo not given) | > 77.6 µM
Nc1[nH]nc2nc3ccc(C(F)(F)F)cc3nc12 | > 100 µM
O=[N+]([O-])/C(C(Cl)=C(Cl)Cl)=C(\N1CCCCC1)n1cncn1 | > 100 µM
NNC(=O)CSc1nc2ccccc2c(=O)n1N | > 100 µM
Cc1cc(S(=O)(=O)Nc2nc3cc(-c4ccc(Cl)cc4)sc3c(=O)n2N)c(S)cc1Cl | > 100 µM
CCC(=O)ONC(=O)Cn1ccc([N+](=O)[O-])n1 | > 100 µM
CC(=O)NC1c2ccccc2C(C)(C)C12CCC1(CC2)OCCO1 (stereo not given) | > 100 µM
CN1COCc2c1ccc1cc3ccc4c(c3nc21)COCN4S(C)(=O)=O | > 100 µM
Oc1cccc(-c2nc3cc(F)ccc3s2)c1 | > 100 µM
CC(C(O)Cc1ccccc1)N(C)N=Nc1ccc([N+](=O)[O-])cc1 (stereo not given) | > 100 µM
CC(C)NC(=O)OCCN=c1c2ccccc2ccc2ccccc12 | > 100 µM
O=c1oc2ccc([N+](=O)[O-])cc2c(Nc2ccc3c(c2)Oc2ccccc2O3)c1[N+](=O)[O-] | 86.7 µM
Cn1c2ccccc2c(=O)c2cccc(C(=O)NC(CCCN=C(N)N)C(=O)O)c21 (stereo not given) | > 100 µM
COc1cc(OC)c(C2c3cc4c(cc3OC(N3CCCC3)C2C)OCO4)c(OC)c1 (stereo not given) | 58.2 µM
Cn1c2ccccc2c(=NNc2cccc(C(=O)O)c2)c2ccccc21 | 13.8 µM
O=C1C(=Cc2ccccc2O)N=C(c2ccccc2)N1n1c(-c2ccccc2)nc2ccccc2c1=O | 78.2 µM

What follows are molecules tested on LOX IMVI melanoma (assay: growth of human tumour cells (NCI), 48 h).

Structure (SMILES) | TGI
COc1ccc(N2C(=O)CSC2c2c[nH]c3ccccc23)cc1 (stereo not given) | > 100 µM
CC(C)(C)C(=O)CC1=Nc2ccccc2SC1(O)CC(=O)C(C)(C)C (stereo not given) | 49.4 µM
N#CC1=C(N)N(c2ccccc2)C(c2ccccc2)C1(C#N)C#N (stereo not given) | 30.3 µM
CCCCN=C(c1ccccc1)N1CCOCC1 | > 100 µM
CCOC(=O)c1ccc(C)c(N=NN(C)C)c1 | > 100 µM
CCC1(C)C=Cc2c(cc(O)c3c(=O)c4ccccc4n(C)c23)O1 (stereo not given) | > 10 µM
Cc1ccc(S(=O)(=O)NC(=O)N[C@@H](Cc2cnc[nH]2)C(=O)O)cc1 | > 100 µM
O=NN(CCCl)C(=O)NC1CCC(O)CC1 (stereo not given) | > 60.6 µM
Nc1[nH]nc2nc3ccc(C(F)(F)F)cc3nc12 | 50.8 µM
O=[N+]([O-])/C(C(Cl)=C(Cl)Cl)=C(\N1CCCCC1)n1cncn1 | 42.1 µM
S=C(Nc1ccc2c(c1)oc1ccccc12)c1cccnc1 | > 100 µM
O=C1c2cccnc2-c2nccc3c2c1nc1cc(Br)ccc13 | 0.205 µM
NNC(=O)CSc1nc2ccccc2c(=O)n1N | > 100 µM
Cc1cc(S(=O)(=O)Nc2nc3cc(-c4ccc(Cl)cc4)sc3c(=O)n2N)c(S)cc1Cl | > 100 µM
CCC(=O)ONC(=O)Cn1ccc([N+](=O)[O-])n1 | > 100 µM
CC(=O)NC1c2ccccc2C(C)(C)C12CCC1(CC2)OCCO1 (stereo not given) | > 100 µM
CN1COCc2c1ccc1cc3ccc4c(c3nc21)COCN4S(C)(=O)=O | > 100 µM
Oc1cccc(-c2nc3cc(F)ccc3s2)c1 | 34.7 µM
CN(C)c1ccc(C2SCC(=O)N2c2ccc(Oc3ccc(Cl)cc3)c(Cl)c2)cc1 (stereo not given) | 39.5 µM
COc1ccc(/C=C2\N=C(SC)NC2=O)cc1 | > 100 µM
CC(C)NC(=O)OCCN=c1c2ccccc2ccc2ccccc12 | > 100 µM
O=c1oc2ccc([N+](=O)[O-])cc2c(Nc2ccc3c(c2)Oc2ccccc2O3)c1[N+](=O)[O-] | 94 µM
Cn1c2ccccc2c(=O)c2cccc(C(=O)NC(CCCN=C(N)N)C(=O)O)c21 (stereo not given) | > 100 µM
COc1cc(OC)c(C2c3cc4c(cc3OC(N3CCCC3)C2C)OCO4)c(OC)c1 (stereo not given) | 28.4 µM
Cn1c2ccccc2c(=NNc2cccc(C(=O)O)c2)c2ccccc21 | 17.9 µM
O=C1C(=Cc2ccccc2O)N=C(c2ccccc2)N1n1c(-c2ccccc2)nc2ccccc2c1=O | > 100 µM

These molecules were tested on OVCAR-3 ovarian (assay: growth of human tumour cells (NCI), 48 h).

Structure (SMILES) | TGI
COc1ccc(N2C(=O)CSC2c2c[nH]c3ccccc23)cc1 (stereo not given) | > 100 µM
CC(C)(C)C(=O)CC1=Nc2ccccc2SC1(O)CC(=O)C(C)(C)C (stereo not given) | 75.3 µM
N#CC1=C(N)N(c2ccccc2)C(c2ccccc2)C1(C#N)C#N (stereo not given) | 34.6 µM
CCCCN=C(c1ccccc1)N1CCOCC1 | > 100 µM
CCOC(=O)c1ccc(C)c(N=NN(C)C)c1 | > 100 µM
CC(C)CC(O)P(=O)(O)O (stereo not given) | > 100 µM
CCC1(C)C=Cc2c(cc(O)c3c(=O)c4ccccc4n(C)c23)O1 (stereo not given) | > 10 µM
O=NN(CCCl)C(=O)NC1CCC(O)CC1 (stereo not given) | > 89.8 µM
O=[N+]([O-])/C(C(Cl)=C(Cl)Cl)=C(\N1CCCCC1)n1cncn1 | 32.2 µM
S=C(Nc1ccc2c(c1)oc1ccccc12)c1cccnc1 | 67.3 µM
O=C1c2cccnc2-c2nccc3c2c1nc1cc(Br)ccc13 | 0.2 µM
NNC(=O)CSc1nc2ccccc2c(=O)n1N | > 100 µM
Cc1cc(S(=O)(=O)Nc2nc3cc(-c4ccc(Cl)cc4)sc3c(=O)n2N)c(S)cc1Cl | > 100 µM
CCC(=O)ONC(=O)Cn1ccc([N+](=O)[O-])n1 | > 100 µM
CN1COCc2c1ccc1cc3ccc4c(c3nc21)COCN4S(C)(=O)=O | > 100 µM
Oc1cccc(-c2nc3cc(F)ccc3s2)c1 | 43.4 µM
CN(C)c1ccc(C2SCC(=O)N2c2ccc(Oc3ccc(Cl)cc3)c(Cl)c2)cc1 (stereo not given) | 79.9 µM
CC(C(O)Cc1ccccc1)N(C)N=Nc1ccc([N+](=O)[O-])cc1 (stereo not given) | 36.3 µM
COc1ccc(/C=C2\N=C(SC)NC2=O)cc1 | > 100 µM
CC(C)NC(=O)OCCN=c1c2ccccc2ccc2ccccc12 | 95.6 µM
O=c1oc2ccc([N+](=O)[O-])cc2c(Nc2ccc3c(c2)Oc2ccccc2O3)c1[N+](=O)[O-] | > 100 µM
Cn1c2ccccc2c(=O)c2cccc(C(=O)NC(CCCN=C(N)N)C(=O)O)c21 (stereo not given) | > 100 µM
COc1cc(OC)c(C2c3cc4c(cc3OC(N3CCCC3)C2C)OCO4)c(OC)c1 (stereo not given) | 20.5 µM
Cn1c2ccccc2c(=NNc2cccc(C(=O)O)c2)c2ccccc21 | 11.9 µM

These molecules were tested on OVCAR-5 ovarian (assay: growth of human tumour cells (NCI), 48 h).

Structure (SMILES) | TGI
COc1ccc(N2C(=O)CSC2c2c[nH]c3ccccc23)cc1 (stereo not given) | > 100 µM
CC(C)(C)C(=O)CC1=Nc2ccccc2SC1(O)CC(=O)C(C)(C)C (stereo not given) | 69 µM
N#CC1=C(N)N(c2ccccc2)C(c2ccccc2)C1(C#N)C#N (stereo not given) | 37.3 µM
CCCCN=C(c1ccccc1)N1CCOCC1 | > 100 µM
CCOC(=O)c1ccc(C)c(N=NN(C)C)c1 | > 100 µM
CC(C)CC(O)P(=O)(O)O (stereo not given) | > 100 µM
CCC1(C)C=Cc2c(cc(O)c3c(=O)c4ccccc4n(C)c23)O1 (stereo not given) | > 10 µM
Cc1ccc(S(=O)(=O)NC(=O)N[C@@H](Cc2cnc[nH]2)C(=O)O)cc1 | > 100 µM
O=NN(CCCl)C(=O)NC1CCC(O)CC1 (stereo not given) | > 100 µM
Nc1[nH]nc2nc3ccc(C(F)(F)F)cc3nc12 | 99.2 µM
O=[N+]([O-])/C(C(Cl)=C(Cl)Cl)=C(\N1CCCCC1)n1cncn1 | 32.1 µM
S=C(Nc1ccc2c(c1)oc1ccccc12)c1cccnc1 | > 100 µM
O=C1c2cccnc2-c2nccc3c2c1nc1cc(Br)ccc13 | 0.527 µM
NNC(=O)CSc1nc2ccccc2c(=O)n1N | > 100 µM
Cc1cc(S(=O)(=O)Nc2nc3cc(-c4ccc(Cl)cc4)sc3c(=O)n2N)c(S)cc1Cl | > 100 µM
CCC(=O)ONC(=O)Cn1ccc([N+](=O)[O-])n1 | > 100 µM
CC(=O)NC1c2ccccc2C(C)(C)C12CCC1(CC2)OCCO1 (stereo not given) | > 100 µM
CN1COCc2c1ccc1cc3ccc4c(c3nc21)COCN4S(C)(=O)=O | > 100 µM
Oc1cccc(-c2nc3cc(F)ccc3s2)c1 | 52.9 µM
CN(C)c1ccc(C2SCC(=O)N2c2ccc(Oc3ccc(Cl)cc3)c(Cl)c2)cc1 (stereo not given) | 87.7 µM
CC(C(O)Cc1ccccc1)N(C)N=Nc1ccc([N+](=O)[O-])cc1 (stereo not given) | 76.1 µM
COc1ccc(/C=C2\N=C(SC)NC2=O)cc1 | > 100 µM
CC(C)NC(=O)OCCN=c1c2ccccc2ccc2ccccc12 | > 100 µM
O=c1oc2ccc([N+](=O)[O-])cc2c(Nc2ccc3c(c2)Oc2ccccc2O3)c1[N+](=O)[O-] | > 100 µM
Cn1c2ccccc2c(=O)c2cccc(C(=O)NC(CCCN=C(N)N)C(=O)O)c21 (stereo not given) | > 100 µM
COc1cc(OC)c(C2c3cc4c(cc3OC(N3CCCC3)C2C)OCO4)c(OC)c1 (stereo not given) | 69 µM
Cn1c2ccccc2c(=NNc2cccc(C(=O)O)c2)c2ccccc21 | 41.6 µM

The molecules below were run on OVCAR-8 ovarian (assay: growth of human tumour cells (NCI), 48 h).

Structure (SMILES) | TGI
COc1ccc(N2C(=O)CSC2c2c[nH]c3ccccc23)cc1 (stereo not given) | > 100 µM
CC(C)(C)C(=O)CC1=Nc2ccccc2SC1(O)CC(=O)C(C)(C)C (stereo not given) | 57 µM
N#CC1=C(N)N(c2ccccc2)C(c2ccccc2)C1(C#N)C#N (stereo not given) | 33.5 µM
CCCCN=C(c1ccccc1)N1CCOCC1 | > 100 µM
CCOC(=O)c1ccc(C)c(N=NN(C)C)c1 | > 100 µM
CCC1(C)C=Cc2c(cc(O)c3c(=O)c4ccccc4n(C)c23)O1 (stereo not given) | > 10 µM
